From publication PMC5354766, “The expression of Nectin-4 on the surface of ovarian cancer cells alters their ability to adhere, migrate, aggregate, and proliferate” (Oncotarget, 2016)
Where no end group is shown, it is not given here.

Tests used:
NIH:OVCAR5 cells [1] = assay: Wound healing (cell migration) assay after mitomycin C treatment; assay type: cell-based, human; conditions: 25 μg/ml mitomycin C for 3 h
Description: Cells were diluted to a concentration of 700,000-10^6 cells/ml in complete media, and 70 μl was plated into each chamber (0.22 cm^2 growth area) of an ibidi® wound-healing culture-insert (ibidi® Verona, WI) in triplicate in a 100 × 20 mm dish (Corning, Falcon, Corning NY). Cells were grown overnight at 37°C in a humidified incubator with 5% CO2 or until the chambers were confluent, prior to removal of the culture insert. Migrating cells were incubated in OptiMEM® containing 10 μM lysophosphatidic acid (LPA Cayman Chemical, Ann Arbor, MI) and photographed initially (t = 0 h), and then up to 48 h with a 4X objective. Image analysis was performed using ImageJ software with the Scratch Assay Analyzer from the MiToBo plug in. Three independent experiments were performed on each cell line.
(§1) Mitomycin C (Sigma-Aldrich, M287) was reconstituted at 0.4 mg/ml in PBS, pH 7.4, according to the supplier's instructions. Prior to spheroid assays, adherent NIH:OVCAR5 cells were pretreated for 3 hours at 37°C, in a tissue culture flask 10 μg/ml mitomycin C diluted in complete RPMI media. Flasks were rinsed with PBS and cells were detached as described for the spheroid assay. For migration assays, cells were plated in ibidi® wound-healing culture-insert incubated overnight, then the media was removed from the culture inserts and replaced with 25 μg/ml mitomycin C in complete RPMI. After 3 hours at 37°C, the culture inserts were removed and the cells were washed with PBS and cell migration was measured as described above.

NIH:OVCAR5 cells [2] = assay: Spheroid formation after mitomycin C treatment; assay type: cell-based, human; conditions: 10 μg/ml mitomycin C for 3 h, spheroids after 24 h
Description: Spheroids were formed from the cell lines described above using the liquid overlay method. One milliliter of a single cell suspension was seeded at a concentration of 50,000 cells/ml in complete media, into 24-well tissue culture plates coated with 0.5% Seakem agarose (in complete media). Plates were incubated at 37°C in a humidified incubator with 5% CO2. At various time points up to 5 days, the plates were removed from the incubator and the spheroids were photographed with a Nikon CoolPix digital camera mounted on an Olympus CK2 inverted microscope with a 4X objective. The size of the spheroids was determined using the measure tool in Adobe Photoshop. The largest spheroids were quantified (20-90 spheroids/well) in a minimum of 8 wells, for a total of >300 spheroids per cell type.
as §1

[3] = tested on: NIH:OVCAR5-N4-over cells adhering to recombinant human Nectin-1 extracellular domain; conditions: 1 h
[4] = tested on: NIH:OVCAR5-N4-over cells adhering to recombinant human Nectin-1 extracellular domain; assay: Peptide screen in the cell adhesion assay at 150 μg/ml; assay type: cell-based; conditions: peptide 0.15 mg/ml; 0.5 μg/well Nectin-1 (R&D Systems); relative to DMSO control; Figure 4A
Description: Black, clear-bottom 96-well microtiter plates (Corning, Imported Costar, Corning, NY) were coated with various concentrations of recombinant human Nectin-1 extracellular domain (R&D Systems or Acrobiosystems, Newark, DE), recombinant human Nectin-4 extracellular domain (R&D Systems), or bovine serum albumin (BSA; Probumin Diagnostic Grade, MilliPore) diluted in PBS. Covered plates were incubated overnight at 37°C in a humidified incubator. After washing with PBS plus Ca^2+/Mg^2+ containing 2 mg/ml ovalbumin (Sigma-Aldrich), the plates were blocked for 1 h at 37°C with 1% BSA in PBS without Ca^2+/Mg^2+. Confluent monolayers of NIH:OVCAR5 cells or NIH:OVCAR5-N4-over cells were detached with Accutase, and then filtered through a 40 μm cell strainer (BD Biosciences, San Jose, CA) to remove cell aggregates. The single cells were stained with CellTracker Green CMFDA (5-chloromethylfluorescein diacetate; Invitrogen™) according to the manufacturer's protocol. After washing the plate, 30,000 cells were added to each well in 50 μl of RPMI 1640 media containing 2 mg/ml ovalbumin and allowed to adhere for 15-60 min at 37°C. Plates were vigorously washed four times and read in a BioTek Synergy fluorescent microplate reader (BioTek, Winooski, VA). Experiments were conducted in triplicate.
Microtiter plates coated with 0.5 μg/well recombinant human Nectin-1 extracellular domain (R&D Systems) as described above were pre-incubated for 30 min at room temperature with 150 μg/ml Nectin-4 peptides in PBS in triplicate. CMFDA-stained NIH:OVCAR5-N4-over cells were then added to the wells and cell adhesion was quantified after a 30 min incubation as described above. In parallel studies, CMFDA-stained NIH:OVCAR5-N4-over cells were pre-incubated for 30 min at room temperature with 150 μg/ml Nectin-1 peptides in PBS in triplicate, and then the cells and peptides were added to the 96-well plate followed by a 30 min incubation. […] Dose curves were conducted as described above, except the microtiter plates were coated with 0.25 μg/well recombinant human Nectin-1 extracellular domain (Acrobiosystems), and the peptides and scrambled controls were diluted from 0.01-200 μg/ml.

Compound	IC50 (mg/ml), inhibition of binding of OVCAR5-N4-over cells to recombinant Nectin-1 [3]	Promotion of cell adhesion [4]	other results
CO[C@@]12[C@H](COC(N)=O)C3=C(C(=O)C(C)=C(N)C3=O)N1C[C@@H]1N[C@@H]12 [mitomycin C]			Effect on migration in wound healing assay (NIH:OVCAR5 cells [1]; NIH:OVCAR5 cells that over-express Nectin-4, 24 h): almost completely inhibited migration; Exposed wound area covered by migrating cells in 24 h (NIH:OVCAR5 cells [1]; NIH:OVCAR5 control cells, untreated cells completely closed the wound): 50%; Migration (wound area covered) in 24 h (NIH:OVCAR5 cells [1]; Nectin-4 knock-down cells N4-KD-VB3, untreated cells 25%): 16%; Spheroid size with vs without treatment (NIH:OVCAR5 cells [2]; NIH:OVCAR5-N4-KD cells): essentially unchanged; Spheroid size with vs without treatment (NIH:OVCAR5 cells [2]; NIH:OVCAR5-N4-over cells): essentially unchanged; Spheroid size with vs without treatment (NIH:OVCAR5 cells [2]; NIH:OVCAR5 control cells): somewhat smaller
ACIVNYHMDRFKES-NH2 [N1-P17]	0.006 mg/mL		
CLSEGQPPPSYNWT [N4-P21, Synthetic peptide from Nectin-4 extracellular domain, IgC2]		~1.5 fold	
LWHIGREGAMLKCL [N4-P20, Synthetic peptide from Nectin-4 extracellular domain, IgC2]		~1.5 fold	
NWYLQRMDVKLTCK-NH2 [N1-P20]	0.018 mg/mL		
QRITHILHVSFLAE-NH2 [N4-P18]	0.041 mg/mL		
RVDGDTLGFPPLTT [N4-P23, Synthetic peptide from Nectin-4 extracellular domain, IgC2]		~1.5 fold	
TTEHSGIYVCHVSN [N4-P24, Synthetic peptide from Nectin-4 extracellular domain, IgC2]		~1.5 fold	
WTRLDGPLPSGVRV-NH2 [N4-P22]	0.028 mg/mL		
